Laboratory results from ChEMBL document CHEMBL1124854, “Porphyrin dimers as photosensitizers in photodynamic therapy” (1990).

Legend:
Assay type in all cases: functional
[1] = system: Mus musculus; assay: In vivo photosensitizing activity against subcutaneously implanted SMT-F tumor in DBA/2 mice at the dose of 4.2mg/Kg, day 1-2
[2] = system: Mus musculus; assay: In vivo photosensitizing activity against subcutaneously implanted SMT-F tumor in DBA/2 mice at the dose of 2.1mg/Kg, day 1-2
[3] = system: Mus musculus; assay: In vivo photosensitizing activity against subcutaneously implanted SMT-F tumor in DBA/2 mice at the dose of 2.1mg/Kg, day 7

Row | SMILES | Tumor response [1] [%] | Tumor response [2] [%] | Tumor response [3] [%]
1 | CNc1cc2[nH]c(cc3nc(cc4nc(ccc(CCC(=O)OC)c1C)C(CCC(=O)OC)=C4C)C(C)=C3C(C)O)c(C)c2C(C)OC(=O)CCC1=C(C)c2cc(C)c(C(C)O)c(C)c(N)cc3nc(cc4[nH]c(cc1n2)c(CCC(=O)OC)c4C)C(C)=C3C(C)O (centres undefined) | 0 |  | 
2 | C=CC1=C(C)c2cc3nc(ccc(CCC(=O)OC)c(C)c(NC)cc4[nH]c(cc1n2)c(C)c4C(C)OC(C)c1c(C)cc2[nH]c(cc4nc(cc5nc(cc(N)c1C)C(C(C)O)=C5C)C(C)=C4CCC(=O)OC)c(CCC(=O)OC)c2C)C(CCC(=O)OC)=C3C (centres undefined) |  | 100 | 100
3 | CNc1cc2[nH]c(cc3nc(cc4nc(ccc(CCC(=O)OC)c1C)C(CCC(=O)OC)=C4C)C(C)=C3C(C)O)c(C)c2C(C)OC(C)c1c(C)cc2[nH]c(cc3nc(cc4nc(cc(N)c1C)C(C(C)O)=C4C)C(C)=C3CCC(=O)OC)c(CCC(=O)OC)c2C (centres undefined) | 0 |  | 
